This note sets out measurements from paper PMC6522510 (Nature Communications, 2019).

Molecules are shown by their SMILES. Structures can show the parent of a compound that is named as a salt.

Some test systems named below: U937; CHRF288-11; M07e; MV4-11; CMS; ML-2; CMK; MOLM-13.
Set-up in all cases: species or system AML cell lines (8); Primary HTS, single concentration about 10 uM, Cell Titer Glo viability; log10 luminescence, per cent inhibition relative to cycloheximide control
Common to all, as to conditions: 72 h, relative to cycloheximide control, log10 luminescence; inhibitor

Regarding `COc1ccc(OC)c(C(O)CNC(=O)CN)c1` (centres unmarked) [SJ000285975-4, MIDODRINE HYDROCHLORIDE], the U937 %inh in the test with U937 was -2.394%. For the same molecule, the CHRF288-11 %inh in the test with CHRF288-11 amounted to 5.586%. This molecule also yielded an M07e %inh with M07e of 0.8303%. Moreover, in the test with MV4-11, the MV4-11 %inh turned out to be 0.5881%. In addition, in the test with CMS, the CMS %inh is given as -2.587%. Moreover, the ML-2 %inh in the test on ML-2 is 3.423%. In the test with CMK, the CMK %inh is -2.727%. Also, the MOLM-13 %inh in the test on MOLM-13 is on record as -0.9656%.
With `COc1ccc(Nc2ncc(-c3ccccc3)o2)cc1OC` [SJ000573259-1, U14961/58/1], the U937 %inh with U937 is reported as -1.171%. The CHRF288-11 %inh with CHRF288-11 is reported as -4.817%. The same molecule came in with an M07e %inh in the test on M07e of 6.596%. For the same molecule, in the test on MV4-11, the MV4-11 %inh is 88.15%. Further, the CMS %inh in the test with CMS is on record as 0.9883%. Further, the ML-2 %inh with ML-2 is on record as 4.567%. Besides, the CMK %inh in the test with CMK was found to be 5.775%. Also, the MOLM-13 %inh with MOLM-13 is 83.48%.
In the case of `OCCn1c(-c2ccncc2)c(-c2ccc(F)cc2)c2ncccc21` [SJ000581130-1], the U937 %inh with U937 is 1.305%. Further, the CHRF288-11 %inh in the test with CHRF288-11 is listed as 7.224%. In addition, the M07e %inh in the test on M07e is given as 6.21%. In addition, in the test on MV4-11, the MV4-11 %inh is on record as 4.176%. Further, in the test on CMS, the CMS %inh stood at 3.754%. For the same molecule, in the test on ML-2, the ML-2 %inh is reported as -0.1929%. In the test on CMK, the CMK %inh is listed as 5.975%. The MOLM-13 %inh in the test on MOLM-13 stood at 0.6818%.
For `COc1cc(Nc2ncc3c(C)nc(-c4cccc(C(F)(F)F)c4)n3n2)cc(OC)c1OC` [SJ000573311-1, U19240/54/1], in the test with U937, the U937 %inh worked out at 12.36%. In addition, the CHRF288-11 %inh with CHRF288-11 came to 12.88%. Moreover, in the test on M07e, the M07e %inh was determined as 19.43%. This molecule also registered an MV4-11 %inh in the test on MV4-11 of 65.83%. Further, in the test on CMS, the CMS %inh was 21.85%. The ML-2 %inh with ML-2 came out at 7.183%. For the same molecule, the CMK %inh in the test with CMK came out at 13.06%. Also, the MOLM-13 %inh in the test on MOLM-13 was determined as 85.98%.
In the case of `Cc1ccc2c(c1)c(C1=C(c3cn(C)c4ccccc34)C(=O)NC1=O)cn2C` [SJ000581079-1], the U937 %inh with U937 turned out to be 21.19%. The CHRF288-11 %inh in the test on CHRF288-11 was determined as 31.79%. Besides, in the test on M07e, the M07e %inh turned out to be 21.17%. The molecule also returned an MV4-11 %inh in the test on MV4-11 of 11.84%. For the same molecule, in the test on CMS, the CMS %inh amounted to 12.87%. In addition, in the test with ML-2, the ML-2 %inh was determined as 12.05%. The CMK %inh in the test with CMK is listed as 50.85%. In addition, in the test with MOLM-13, the MOLM-13 %inh came out at 61.76%.
As for `COc1cccc(C2=C(c3cn(C)c4ccc(Cl)cc34)C(=O)NC2=O)c1` [SJ000581146-1], the U937 %inh with U937 turned out to be 1.209%. Besides, the CHRF288-11 %inh in the test on CHRF288-11 was -4.42%. Moreover, the M07e %inh in the test with M07e is 8.183%. Moreover, the MV4-11 %inh with MV4-11 is recorded as 2.685%. In the test on CMS, the CMS %inh is 4.874%. Further, the ML-2 %inh in the test with ML-2 was -1.297%. Besides, the CMK %inh in the test with CMK is -1.255%. In the test on MOLM-13, the MOLM-13 %inh is 1.622%.
For `Cn1cc(C2=C(c3cccnc3)C(=O)NC2=O)c2ccccc21` [SJ000581097-1], the U937 %inh in the test with U937 was -1.738%. Moreover, the CHRF288-11 %inh in the test on CHRF288-11 is on record as 42.59%. This molecule had an M07e %inh with M07e of 1.519%. For the same molecule, in the test on MV4-11, the MV4-11 %inh was found to be 3.908%. In addition, in the test with CMS, the CMS %inh is reported as 3.929%. Further, the ML-2 %inh with ML-2 was found to be 3.521%. Moreover, in the test on CMK, the CMK %inh is 8.732%. The MOLM-13 %inh in the test on MOLM-13 was 6.704%.
